Square brackets hold non-standard residues; d marks the D form. Ends that are not written are not given here. Peptide text beside a SMILES is read from it. hArg = N=C(N)NCCCC[C@H](N)C(=O)O; Nle = CCCC[C@H](N)C(=O)O; Orn = NCCC[C@H](N)C(=O)O
Experiments:
[1] = biological target: T1, cultured rat pituitary cells (Rattus norvegicus, UniProt P35353); assay: Block of ACTH and β-endorphin secretion by cultured rat pituitary cells by CRF antagonists (procedure of Example XLIII); format: cell-based; details: general procedure of Example XLIII
T1 sequence (P35353 24-415): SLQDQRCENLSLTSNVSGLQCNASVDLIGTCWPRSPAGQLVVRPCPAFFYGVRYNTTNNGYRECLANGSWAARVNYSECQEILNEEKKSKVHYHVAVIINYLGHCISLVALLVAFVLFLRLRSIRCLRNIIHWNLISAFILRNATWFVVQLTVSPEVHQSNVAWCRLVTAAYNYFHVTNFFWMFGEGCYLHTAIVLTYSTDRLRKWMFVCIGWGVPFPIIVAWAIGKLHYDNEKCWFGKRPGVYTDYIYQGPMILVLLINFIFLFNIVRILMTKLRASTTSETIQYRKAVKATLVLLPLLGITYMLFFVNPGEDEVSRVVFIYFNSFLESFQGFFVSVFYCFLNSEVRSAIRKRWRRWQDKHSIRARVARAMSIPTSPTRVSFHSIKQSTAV
Procedure: The effectiveness of synthetic CRF antagonists to block the secretion of ACTH and B-endorphin by cultured rat pituitary cells is measured using the procedure as generally set forth in Vale et al., Endocrinology, 91, 562 (1972). In vivo testing is carried out using the general procedure set forth in C. Rivier et al., Science, 218, 377 (1982).

[2] = biological target: T1, cultured rat pituitary cells; assay: Stimulation of ACTH and β-endorphin secretion by cultured rat pituitary cells (general procedure of Example III); format: cell-based; details: general procedure of Example III
Procedure: The synthetic peptide AHC and oCRF were examined for their effects on the secretion of ACTH and B-endorphin in vitro and was also in vivo. The potency of synthetic oCRF to stimulate the secretion of ACTH and β-endorphin by cultured rat pituitary cells was measured using the procedure as generally set forth in Endocrinology, 91, 562 (1972). […] In.vivo testing is carried out using the general procedure set forth in C. Rivier et al., Science, 218, 377 (1982).

[3] = Lowering of blood pressure, in vivo testing by the general procedure of Example III

Compound: H-DLTFHLLREVAEMTRAEQLAQQAHSNRKLMEII-NH2 [(Ala^19, Thr^22]-hCRF(9-41)]
- secretion of ACTH and β-END-LI (antagonist test) [1]: inhibits

Compound: H-IDLTFHLLRNMIEMARNENQREQAGLNRKYLDEV-NH2 [Carp Urotensin 1(8-41)]
- secretion of ACTH and β-END-LI (antagonist test) [1]: inhibits

Compound: LSLELLRKMIEARKQEKEKQQAANNRLLLDII-NH2
- secretion of ACTH and β-END-LI (antagonist test) [1]: inhibits

Compound: H-DLSLELLRKMIEIEKQEKLKQQAANNRLLMDTI-NH2 [[Leu^26, Met^37]-sauvagine(8-40)]
- secretion of ACTH and β-END-LI (antagonist test) [1]: inhibits

Compound: H-DLTFHLLRNMIEMARNENQREQAGLNRKYLDEV-NH2 [Carp Urotensin 1(9-41)]
- secretion of ACTH and β-END-LI (antagonist test) [1]: inhibits

Compound: H-SQEPPISLDLTLELLREMLEMAKAEQEAEQAALNRLYLEEA-NH2 [[Leu^12, G1u^13, Tyr^37]-AHC]
- secretion of ACTH and β-END-LI [2]: stimulates
- lowering of blood pressure [3]: very significant lowering of blood pressure

Compound: CCCC[C@H](NC(=O)[C@H](CCC(=O)O)NC(=O)[C@H](CC(C)C)NC(=O)[C@H](CCCC)NC(=O)[C@H](CCC(=O)O)NC(=O)[C@H](CCCNC(=N)N)NC(=O)[C@H](CC(C)C)NC(=O)[C@H](CC(C)C)NC(=O)[C@H](Cc1c[nH]cn1)NC(=O)[C@H](Cc1ccccc1)NC(=O)[C@@H](NC(=O)[C@H](CC(C)C)NC(=O)[C@H](CC(=O)O)NC(=O)[C@H](CC(C)C)NC(=O)[C@H](CO)NC(=O)[C@@H](NC(=O)[C@@H]1CCCN1)[C@@H](C)CC)[C@@H](C)O)C(=O)N[C@@H](C)C(=O)N[C@@H](CCCNC(=N)N)C(=O)N[C@@H](C)C(=O)N[C@@H](CCC(=O)O)C(=O)N[C@@H](CCC(N)=O)C(=O)N[C@@H](CCC(=O)O)C(=O)N[C@@H](C)C(=O)N[C@@H](CCC(=O)O)C(=O)N[C@@H](CCC(N)=O)C(=O)N[C@@H](C)C(=O)N[C@@H](C)C(=O)N[C@@H](CC(C)C)C(=O)N[C@@H](CC(N)=O)C(=O)N[C@@H](CCCNC(=N)N)C(=O)N[C@@H](CC(C)C)C(=O)N[C@@H](CC(C)C)C(=O)N[C@@H](CC(C)C)C(=O)N[C@@H](CCC(=O)O)C(=O)N[C@@H](CCC(=O)O)C(=O)N[C@@H](C)C(N)=O [[Nle^18,21, Arg^23]-AHC(5-41)] (H-PISLDLTFHLLRE[Nle]LE[Nle]ARAEQEAEQAALNRLLLEEA-NH2)
- secretion of ACTH and β-END-LI [2]: stimulates
- lowering of blood pressure [3]: very significant lowering of blood pressure

Compound: H-YSEEPPISLDLTFHLLREVLEMARAEQLAEQAHSNRKLMEII-NH2 [[Tyr-Ser^1, Glu^29]-rCRF]
- secretion of ACTH and β-END-LI [2]: stimulates
- lowering of blood pressure [3]: very significant lowering of blood pressure

Compound: CC[C@H](C)[C@H](NC(=O)[C@@H]1CCCN1C(=O)[C@@H]1CCCN1)C(=O)N[C@@H](CO)C(=O)N[C@@H](CC(C)C)C(=O)N[C@@H](CC(=O)O)C(=O)N[C@@H](CC(C)C)C(=O)N[C@H](C(=O)N[C@@H](CC(C)C)C(=O)N[C@@H](Cc1c[nH]cn1)C(=O)N[C@@H](CC(C)C)C(=O)N[C@@H](CC(C)C)C(=O)N[C@@H](CCCNC(=N)N)C(=O)N[C@@H](CCC(=O)O)C(=O)N[C@@H](CCSC)C(=O)N[C@@H](CC(C)C)C(=O)N[C@@H](CCC(=O)O)C(=O)N[C@@H](CCSC)C(=O)N[C@@H](CCC(=O)O)C(=O)N[C@@H](CCCN)C(=O)N[C@@H](C)C(=O)N[C@@H](CCC(=O)O)C(=O)N[C@@H](CCC(N)=O)C(=O)N[C@@H](CCC(=O)O)C(=O)N[C@@H](C)C(=O)N[C@@H](CCC(=O)O)C(=O)N[C@@H](CCC(N)=O)C(=O)N[C@@H](C)C(=O)N[C@@H](C)C(=O)N[C@@H](CC(C)C)C(=O)N[C@@H](CC(N)=O)C(=O)N[C@@H](CCCNC(=N)N)C(=O)N[C@@H](CCCCNC(=N)N)C(=O)N[C@@H](CC(C)C)C(=O)N[C@@H](CC(C)C)C(=O)N[C@@H](CCC(=O)O)C(=O)N[C@@H](CCC(=O)O)C(=O)N[C@@H](C)C(N)=O)[C@@H](C)O (H-PPISLDLTLHLLREMLEME[Orn]AEQEAEQAALNR[hArg]LLEEA-NH2)
- secretion of ACTH and β-END-LI [2]: stimulates
- lowering of blood pressure [3]: very significant lowering of blood pressure

Compound: H-SQEPPISLDLTFALLREMLEMAKAEQEAEQAALNRLLLEEA-NH2 [[Ala^13]-AHC]
- secretion of ACTH and β-END-LI [2]: stimulates
- lowering of blood pressure [3]: very significant lowering of blood pressure

Compound: H-SEEPPIS[Nle]DLSFHLLREVLEMARAEQLAQQAHLNRKLMEEI-NH2 [[Nle^8, Ser^11, Leu^33, Glu^40]-rCRF]
- secretion of ACTH and β-END-LI [2]: stimulates
- lowering of blood pressure [3]: very significant lowering of blood pressure

Compound: H-SQEPPISLDLTFHLLRE[Nle]LE[Nle]TKADQLRQQAHSNRKLLDIA-NH2 [[Nle^18,21,Arg^28]-oCRF]
- secretion of ACTH and β-END-LI [2]: stimulates
- lowering of blood pressure [3]: very significant lowering of blood pressure

Compound: SEEPPISLDLTFHLLREVLEMTRAEQLAEQAHSNRKLMEEI-NH2 [[Thr^22, Glu^29,40]-rCRF]
- secretion of ACTH and β-END-LI [2]: stimulates
- lowering of blood pressure [3]: very significant lowering of blood pressure

Compound: H-SEEPPISLDLTLELLREMLEME[Orn]AEKEAEQAALNRLLLEEA-NH2
- secretion of ACTH and β-END-LI [2]: stimulates
- lowering of blood pressure [3]: very significant lowering of blood pressure

Compound: Ac-GEEPPISLDLTFHLLREVLEMARAEQLAQQAHLNRKLMEEI-NH2 [[Acetyl-Gly^1, Leu^33, Glu^40]-rCRF]
- secretion of ACTH and β-END-LI [2]: stimulates
- lowering of blood pressure [3]: very significant lowering of blood pressure

Compound: CCCC[C@H](NC(=O)[C@H](CCC(=O)O)NC(=O)[C@H](CC(C)C)NC(=O)[C@H](CCCC)NC(=O)[C@H](CCC(=O)O)NC(=O)[C@H](CCCNC(=N)N)NC(=O)[C@H](CC(C)C)NC(=O)[C@H](CC(C)C)NC(=O)[C@H](Cc1c[nH]cn1)NC(=O)[C@H](Cc1ccccc1)NC(=O)[C@@H](NC(=O)[C@H](CC(C)C)NC(=O)[C@H](CC(=O)O)NC(=O)[C@H](CC(C)C)NC(=O)[C@H](CO)NC(=O)[C@@H](NC(=O)[C@@H]1CCCN1C(=O)[C@@H]1CCCN1C(=O)[C@H](N)Cc1ccc(O)cc1)[C@@H](C)CC)[C@@H](C)O)C(=O)N[C@@H](C)C(=O)N[C@@H](CCCCN)C(=O)N[C@@H](C)C(=O)N[C@@H](CCC(=O)O)C(=O)N[C@@H](CCC(N)=O)C(=O)N[C@@H](CCC(=O)O)C(=O)N[C@@H](C)C(=O)N[C@@H](CCC(=O)O)C(=O)N[C@@H](CCC(N)=O)C(=O)N[C@@H](C)C(=O)N[C@@H](C)C(=O)N[C@@H](CC(C)C)C(=O)N[C@@H](CC(N)=O)C(=O)N[C@@H](CCCNC(=N)N)C(=O)N[C@@H](CC(C)C)C(=O)N[C@@H](CC(C)C)C(=O)N[C@@H](CC(C)C)C(=O)N[C@@H](CCC(=O)O)C(=O)N[C@@H](CCC(=O)O)C(=O)N[C@@H](C)C(N)=O [[D-Tyr^3, Nle^18,21)-AHC(3-41)] (H-[dY]PPISLDLTFHLLRE[Nle]LE[Nle]AKAEQEAEQAALNRLLLEEA-NH2)
- secretion of ACTH and β-END-LI [2]: stimulates
- lowering of blood pressure [3]: very significant lowering of blood pressure

Source: EP0153845A2, “CRF analogs” (THE SALK INSTITUTE FOR BIOLOGICAL STUDIES, priority 1984, dated 1985)
